According to US6160020A, “Alkali metal and alkaline-earth metal salts of acetaminophen” (priority 1998, dated 2000):
≈ marks a conversion by molar mass, not a printed value. Where a name gives a salt, the structure may show the parent alone. Read-outs that look alike come from different tables or passages of the source.

What was measured:
[1] = aqueous solubility at 22° C.; assay type: physicochemical; conditions: for solubility equivalent of APAP free acid: expressed as APAP free acid, approximately
Procedure: Accordingly, the sodium, lithium and calcium salts have solubilities equivalent to approximately 260-280, 250-270, and 10 mg/mL, respectively, of APAP free acid.

[2] = dissolution of APAP form (powder) in 0.1N hydrochloric acid, USP Dissolution Apparatus 2; assay type: physicochemical; conditions: paddle 50 rpm, 37° C.
Procedure: In 0.1N hydrochloric acid using USP Dissolution Apparatus 2 (paddle speed: 50 rpm) at 37° C., the concentration of acetaminophen at 30 seconds was as follows: […]

[3] = cited from earlier work
[4] = stability of anionic form of APAP in aqueous solution; assay type: physicochemical; conditions: pH>11
Procedure: The lack of discussion on APAP salts in the scientific literature may be due in part to the fact that the anionic form of APAP is stable in aqueous solution (pH>11) for only a short period of time (<24 h). If the salt is not quickly isolated after formation, p-aminophenolate (PAP) can form and result in discoloration of the resulting product.

in vivo = assay: in vivo; parameters: species or system dog (male purebred beagles); conditions: dog, po
Procedure: A study was conducted in dogs to determine the bioavailability of acetaminophen sodium. The free acid form of acetaminophen was used as the control. Compressed cylindrical pellets having the following composition were prepared:
Acetaminophen Sodium--compressed neat (no excipients). Control--150 mg APAP, 30 mg microcrystalline cellulose, and 30 mg dextrates.
Eight male purebred beagles having a body weight at initial dosing of approximately 9 to 14 kg were used in the study. The dogs were fed PMI® Certified Canine Diet Meal No. 5007 and water, both ab libitum. The dogs were fasted overnight for approximately 12 hours prior to dosing and food was returned 4 hours after dosing.
The dogs were divided into two groups and each group was dosed with either acetaminophen sodium or the control (free acid APAP) pellets. A single dose equivalent to 300 mg of acetaminophen free acid was administered via an oral gavage using a stomach tube. Each dose was followed by 20 mL of water. After a period of one week, the each group was dosed again, but with the other form of acetaminophen. Twelve blood samples were collected form each dog on each dosing day (1 prior to dosing and 11 thereafter). The plasma was separated and tested for acetaminophen.

SMILES	aqueous solubility [1]	concentration of acetaminophen at 30 seconds [2]	other results
CC(=O)Nc1ccc(O)cc1 [II, acetaminophen sodium (C8 H8 NO2 Na.7H2 O)]	541 mg/mL		
CC(=O)Nc1ccc(O)cc1 [Free Acid, acetaminophen]		0.02 Mg/mL of APAP	
CC(=O)Nc1ccc(OC(=O)CN)cc1 [APG-HBr, p-acetamidophenyl glycinate]			water solubility, fold more soluble than acetaminophen ([3]; relative to acetaminophen): five
CC(=O)Nc1ccc(O)cc1 [III, acetaminophen calcium (C16 H16 N2 O4 Ca.2H2 O)]	13 mg/mL		
CC(=O)Nc1ccc(O)cc1 [anionic form of APAP]			stability in aqueous solution [4]: < 24 h
CC(=O)Nc1ccc(OC(=O)CC(N)C(=O)O)cc1 (stereo not drawn) [BAPA-HCl, β-p-acetamidophenyl aspartate]			water solubility, fold less soluble than APAP ([3]; relative to APAP): four

Further lines, with some results ahead:

aqueous solubility [1]	concentration of acetaminophen at 30 seconds [2]	SMILES	other results
493 mg/mL		CC(=O)Nc1ccc(O)cc1 [I, acetaminophen sodium (C8 H8 NO2 Na.6H2 O)]	
13 mg/mL	0.20 Mg/mL of APAP	CC(=O)Nc1ccc(O)cc1 [Calcium Salt, acetaminophen calcium]	solubility equivalent of APAP free acid [1]: ~10 mg/mL
455 mg/mL (≈ 3010 mM)		CC(=O)Nc1ccc(O)cc1 [IV, acetaminophen lithium (C8 H8 NO2 Li.6H2 O)]	aqueous solubility ([1]; listed as Example V): 472 mg/mL (≈ 3120 mM)
	0.30 Mg/mL of APAP	CC(=O)Nc1ccc(O)cc1 [Sodium Salt, acetaminophen sodium]	solubility equivalent of APAP free acid [1]: 260 to 280 mg/mL; Tmax (in vivo): 16.2 ± 6 min
	0.32 Mg/mL of APAP	CC(=O)Nc1ccc(O)cc1 [Lithium Salt, acetaminophen lithium]	solubility equivalent of APAP free acid [1]: 250 to 270 mg/mL
